Reference: patent publication US10336803B2, “Insulin secreting polypeptides” (Mayo Foundation for Medical Education and Research, priority 2013, dated 2019)
No end group written: not given here.

Experiments:
normal dogs = test: Chimeric polypeptide intravenous infusion in normal dogs: blood glucose, plasma insulin, plasma cGMP; format: in vivo, dog; conditions: normal dogs (n=2), intravenous infusion 10 or 100 pmol/kg/minute for 45 minutes; for plasma insulin: versus base line (FIG. 7); for plasma glucose: versus base line (FIG. 8); for plasma cGMP: versus base line (FIG. 9)
[1] = target: T1, GC-A particulate guanylate cyclase receptors (Homo sapiens, UniProt P16066); test: Cell cGMP assay in HEK293 cells stably transfected with GC-A; format: cell-based; conditions: 10^−10 M, 10^−8M, or 10^−6M polypeptide for 10 minutes (FIGS. 14, 15)
T1 construct: expressed in transfected cells; host or cells: HEK293
T1 sequence (P16066 33-1061): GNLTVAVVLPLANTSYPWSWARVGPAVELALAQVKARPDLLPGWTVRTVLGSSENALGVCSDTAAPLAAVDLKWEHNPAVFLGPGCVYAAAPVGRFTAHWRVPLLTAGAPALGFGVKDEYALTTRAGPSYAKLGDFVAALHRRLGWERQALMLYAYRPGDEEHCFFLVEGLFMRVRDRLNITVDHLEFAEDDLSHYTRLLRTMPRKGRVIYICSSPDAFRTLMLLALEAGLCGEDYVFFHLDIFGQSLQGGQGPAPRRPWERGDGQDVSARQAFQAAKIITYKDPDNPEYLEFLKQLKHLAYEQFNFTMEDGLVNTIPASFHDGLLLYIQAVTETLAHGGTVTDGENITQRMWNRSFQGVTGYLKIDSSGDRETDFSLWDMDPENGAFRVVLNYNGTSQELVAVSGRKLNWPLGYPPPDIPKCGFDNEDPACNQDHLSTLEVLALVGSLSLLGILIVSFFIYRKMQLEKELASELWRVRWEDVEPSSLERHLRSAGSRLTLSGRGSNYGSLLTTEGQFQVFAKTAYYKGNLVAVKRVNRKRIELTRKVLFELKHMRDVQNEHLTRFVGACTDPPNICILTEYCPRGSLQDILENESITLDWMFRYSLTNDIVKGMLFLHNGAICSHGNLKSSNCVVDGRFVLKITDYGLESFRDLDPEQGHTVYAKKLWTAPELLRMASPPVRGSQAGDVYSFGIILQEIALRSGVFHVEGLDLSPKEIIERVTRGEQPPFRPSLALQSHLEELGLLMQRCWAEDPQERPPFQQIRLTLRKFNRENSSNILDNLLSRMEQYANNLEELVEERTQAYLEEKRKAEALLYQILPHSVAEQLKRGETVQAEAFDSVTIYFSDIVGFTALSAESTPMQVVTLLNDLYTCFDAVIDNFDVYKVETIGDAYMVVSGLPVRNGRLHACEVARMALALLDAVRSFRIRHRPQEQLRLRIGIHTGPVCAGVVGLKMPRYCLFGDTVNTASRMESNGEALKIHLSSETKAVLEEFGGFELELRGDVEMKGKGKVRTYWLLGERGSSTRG

normal rats [2] = test: Chimeric polypeptide infusion in normal rats: blood glucose and plasma insulin; format: in vivo, rat; conditions: IV infusion 1 pmol/kg/minute for 210 minutes
[3] = target: T2, GC-B particulate guanylate cyclase receptors (Homo sapiens, UniProt P20594); test: Cell cGMP assay in HEK293 cells stably transfected with GC-B; format: cell-based; conditions: 10^−10 M, 10^−8M, or 10^−6M polypeptide for 10 minutes (FIGS. 14, 15)
T2 construct: expressed in transfected cells; host or cells: HEK293
T2 sequence (P20594 23-1047): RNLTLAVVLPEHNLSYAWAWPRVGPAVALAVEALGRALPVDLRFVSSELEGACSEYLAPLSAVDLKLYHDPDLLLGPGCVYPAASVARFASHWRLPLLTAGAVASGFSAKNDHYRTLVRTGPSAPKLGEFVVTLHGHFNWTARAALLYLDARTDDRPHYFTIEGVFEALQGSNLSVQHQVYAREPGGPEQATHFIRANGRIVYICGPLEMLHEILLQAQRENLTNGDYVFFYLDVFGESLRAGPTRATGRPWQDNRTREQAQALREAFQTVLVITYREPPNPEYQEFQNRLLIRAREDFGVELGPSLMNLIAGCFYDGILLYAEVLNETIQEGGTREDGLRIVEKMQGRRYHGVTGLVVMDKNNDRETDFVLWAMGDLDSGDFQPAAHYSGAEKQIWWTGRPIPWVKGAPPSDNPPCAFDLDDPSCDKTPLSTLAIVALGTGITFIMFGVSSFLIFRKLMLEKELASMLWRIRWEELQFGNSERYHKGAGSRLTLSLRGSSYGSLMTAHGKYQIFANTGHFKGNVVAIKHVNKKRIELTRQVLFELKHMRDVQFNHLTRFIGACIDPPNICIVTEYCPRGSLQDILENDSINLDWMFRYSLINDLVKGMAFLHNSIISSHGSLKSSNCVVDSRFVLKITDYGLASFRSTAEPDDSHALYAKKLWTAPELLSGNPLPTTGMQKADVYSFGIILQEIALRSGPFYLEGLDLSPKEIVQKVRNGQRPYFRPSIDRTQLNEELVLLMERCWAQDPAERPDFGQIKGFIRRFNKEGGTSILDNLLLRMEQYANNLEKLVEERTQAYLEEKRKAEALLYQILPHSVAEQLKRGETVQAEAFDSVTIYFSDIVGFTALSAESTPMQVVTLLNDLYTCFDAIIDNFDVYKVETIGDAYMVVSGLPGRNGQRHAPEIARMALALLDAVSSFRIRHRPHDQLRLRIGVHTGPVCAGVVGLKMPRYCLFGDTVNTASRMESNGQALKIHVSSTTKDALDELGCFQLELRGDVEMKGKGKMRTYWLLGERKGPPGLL

[4] = tested on: diabetic rats (streptozotocin); test: CRRL-090 ISP chronic subcutaneous pump treatment of streptozotocin diabetic rats; format: in vivo, male Wistar rats
Experimental: CRRL-090 ISP was synthesized by direct protein synthesis and tested for biological activity in diabetic rats as follows. Three groups of male Wistar rats (six rats per group) were used: normal control group, diabetic control group, and diabetic group treated with CRRL-090 ISP. One dose of streptozotocin was administered intraperitoneally to induce diabetes in the rats of the diabetic control group and diabetic group treated with CRRL-090 ISP. Two months after induction of diabetes, ALZET pumps (obtained from DURECT Corporation, ALZET Osmotic Pumps, P.O. Box 530, Cupertino, Calif.; Model 1007D) configured to release 0.1 μg/kg/minute of CRRL-090 ISP or saline as control were serially implanted subcutaneously every 14 days over the course of one month (2 pumps, one on day 0 and another on day 14). Cardiac function was assessed by echocardiography, neurohormones were measured by radioimmunoassays. Fibrosis was determined by picrosirius red staining.

normal rats [5] = test: CRRL-090 ISP intravenous infusion in normal rats: blood glucose and plasma insulin; format: in vivo, rat; conditions: 1 pmol/kg/minute for 210 minutes intravenous infusion
Experimental: CRRL-090 ISP was synthesized by direct protein synthesis and tested for biological activity in normal rats as follows. Two groups of normal rats were used. The first group included five normal rats, which were administered normal saline. The second group included seven normal rats, which were administered CRRL-090 (1 pmol/kg/minute for 210 minutes). Both administrations were via intravenous infusion.

diabetic rats = test: Chronic CRRL-094 ISP-NP subcutaneous pump treatment of diabetic rats; format: in vivo, male Wistar rats; conditions: ALZET pumps subcutaneously 1 pmol/kg/minute
From the text: Three groups of male Wistar rats were used: (1) normal non-diabetic control rats, (2) diabetic control rats, and (3) diabetic rats treated with CRRL-094 ISP-NP. Two months after induction of diabetes, ALZET pumps (obtained from DURECT Corporation, ALZET Osmotic Pumps, P.O. Box 530, Cupertino, Calif.; Model 1007D) filled with CRRL-094 ISP-NP in saline (dose=1 pmol/kg/minute) or saline as control were serially implanted subcutaneously every 14 days over the course of one month. After four weeks of treatment, blood glucose levels, plasma insulin levels, body weight, plasma and urine cGMP levels, and left ventricular hypertrophy were measured. Blood glucose levels and body weight also were measured after two weeks of treatment.

[6] = after four weeks, compared to diabetic rats treated with saline (FIG. 19)

| Substance | plasma insulin (normal dogs) | plasma glucose (normal dogs) | plasma cGMP (normal dogs) | activation of GC-A receptors (cGMP levels) [1] | plasma insulin (normal rats [2]; compared to placebo control rats (FIGS. 10, 12)) | blood glucose (normal rats [2]; compared to placebo control rats (FIGS. 11, 13)) | activation of GC-B receptors (cGMP levels) [3] | blood glucose levels ([4]; ALZET pumps subcutaneously 0.1 μg/kg/minute for one month starting two months after streptozotocin, compared to diabetic controls (FIG. 3)) | plasma insulin levels ([4]; ALZET pumps subcutaneously 0.1 μg/kg/minute for one month, three months after streptozotocin, compared to diabetic controls (FIG. 4)) | glomerular filtration rate (GFR) ([4]; ALZET pumps subcutaneously 0.1 μg/kg/minute for one month, three months after streptozotocin, compared to diabetic controls (FIG. 5)) | left ventricular hypertrophy (LV/BW ratio) ([4]; ALZET pumps subcutaneously 0.1 μg/kg/minute for one month, three months after streptozotocin, compared to diabetic controls (FIG. 6)) | blood glucose levels (normal rats [5]; compared to control rats that received saline (FIG. 1)) | plasma insulin (normal rats [5]; compared to control rats that received saline (FIG. 2)) | plasma insulin (diabetic rats; after four weeks, compared to diabetic rats treated with saline (FIG. 17)) | plasma cGMP (diabetic rats; [6]) | urine cGMP (diabetic rats; [6]) | left ventricular hypertrophy (Left Ventricular Mass, LVMd) (diabetic rats; after four weeks, compared to diabetic rats treated with saline (FIG. 20)) | blood glucose (diabetic rats; four weeks, compared to diabetic rats treated with saline (FIG. 16)) | body weight (diabetic rats; four weeks, compared to diabetic rats treated with saline (FIG. 18)) |
| --- | --- | --- | --- | --- | --- | --- | --- | --- | --- | --- | --- | --- | --- | --- | --- | --- | --- | --- | --- |
| SPKMVQG-SGCFGRKMDRISSSSGLGCKVLRRHGEGTFTSDSEAFIWLGR [CRRL-092 ISP-NP] | increase in plasma insulin | reduction in plasma glucose | increase | activated the GC-A receptors | increased plasma insulin | lower blood glucose | but not the GC-B receptors |  |  |  |  |  |  |  |  |  |  |  |  |
| HGEGTFTSDSEAFIWLGR-amide (HGEGTFTSDSEAFIWLGR-NH2) [CRRL-090 ISP] |  |  |  |  |  |  |  | reduced blood glucose levels | increased plasma insulin levels | increased glomerular filtration rate | less left ventricular hypertrophy | lower blood glucose levels | increased plasma insulin |  |  |  |  |  |  |
| HGEGT-FTSDSEAFIWLGRRMDRIGLSKGCFGLKLDRIGSMSGLGCKVLRRH (HGEGTFTSDSEAFIWLGRRMDRIGLSKGCFGLKLDRIGSMSGLGCKVLRRH) [CRRL-094 ISP-NP] | increase in plasma insulin | reduction in plasma glucose | increase | activated both the GC-A and GC-B receptors |  |  | activated both the GC-A and GC-B receptors |  |  |  |  |  |  | increased plasma insulin | increased plasma and urine cGMP | increased plasma and urine cGMP | reduced left ventricular hypertrophy | reduced blood glucose | reduced body weight |
